Laboratory results published in PubChem BioAssay AID194 (DTP/NCI, 2004).
Values joined by “and” are separate entries in the source; they are usually repeats but may differ in a detail not shown here. Equal values may be shown once. Results filed as inconclusive are left out. Where a SMILES comes first, the peptide text is derived from it. Bridges are numbered along the chain shown (N, C = ends). Roman numbers before positions name the chains, in order. [ ]: non-standard residue; d: D form. The star is where a group is joined. Quinoxaline2carbonyl = O=C(c1cnc2ccccc2n1)*; NMeV = CN[CH](C(=O)O)C(C)C; NMeC = CN[CH](CS)C(=O)O

Tested on: BDF1 mice, B16 melanoma s.c., survival/tumor T/C
Experiment: NCI In Vivo Anticancer Drug Screen. Data for tumor model B16 Melanoma (subcutaneous) in B6D2F1 (BDF1) mice
Settings: endpoint: median survival time, higher = longer survival
Method: The antitumor activity of compounds was measured in mice bearing transplantable tumors. Survival or tumor size were measured and the results are expressed as the measurement made in the treated group (T) divided by the measurement made in the vehicle treated control group (C). The tumor model used in this assay is B16 Melanoma (subcutaneous) in B6D2F1 (BDF1) mice

SMILES: COc1cc2c(c(OC)c1OC)-c1ccc(OC)c(=O)cc1[C@@H](NC(C)=O)CC2
- T/C (dose: 63.0 micrograms/kg/injection, schedule: Q01DX009 (ip), vehicle: saline): 95 % of control
- T/C (dose: 125.0 micrograms/kg/injection, schedule: Q01DX009 (ip), vehicle: saline): 116 % of control
- T/C (dose: 250.0 micrograms/kg/injection, schedule: Q01DX009 (ip), vehicle: saline): 105 % of control
- T/C (dose: 500.0 micrograms/kg/injection, schedule: Q01DX009 (ip), vehicle: saline): 103 % of control

SMILES: Nc1ncnc2c1ccn2C1OC(CO)C(O)C1O (configuration not stated)
- T/C (dose: 0.25 mg/kg/injection, schedule: Q01DX009 (ip), vehicle: saline): 111 % of control
- T/C (dose: 0.5 mg/kg/injection, schedule: Q01DX009 (ip), vehicle: Klucel (hydroxypropylcellulose) (HPC)): 106 % of control
- T/C (dose: 0.5 mg/kg/injection, schedule: Q01DX009 (ip), vehicle: saline): 106 % of control
- T/C (dose: 1.0 mg/kg/injection, schedule: Q01DX009 (ip), vehicle: Klucel (hydroxypropylcellulose) (HPC)): 110 % of control
- T/C (dose: 1.0 mg/kg/injection, schedule: Q01DX009 (ip), vehicle: saline): 99 % of control

SMILES: O=C(NP(=O)(N1CC1)N1CC1)c1cc(I)ccc1I
- T/C (dose: 1.0 mg/kg/injection, schedule: Q02DX009 (ip), vehicle: saline with Tween-80): 96 % of control
- T/C (dose: 1.0 mg/kg/injection, schedule: Q02DX009 (ip), vehicle: saline): 103 % of control
- T/C (dose: 4.0 mg/kg/injection, schedule: Q01DX001 (oral), vehicle: saline with Tween-80): 98 % of control
- T/C (dose: 4.0 mg/kg/injection, schedule: Q02DX009 (ip), vehicle: saline with Tween-80): 95 % of control
- T/C (dose: 4.0 mg/kg/injection, schedule: Q02DX009 (ip), vehicle: saline): 180 % of control
- T/C (dose: 8.0 mg/kg/injection, schedule: Q01DX001 (oral), vehicle: saline with Tween-80): 92 % of control
- T/C (dose: 8.0 mg/kg/injection, schedule: Q02DX009 (ip), vehicle: saline with Tween-80): 88 % of control
- T/C (dose: 8.0 mg/kg/injection, schedule: Q02DX009 (ip), vehicle: saline): 153 % of control
- T/C (dose: 16.0 mg/kg/injection, schedule: Q01DX001 (oral), vehicle: saline with Tween-80): 91 % of control
- T/C (dose: 16.0 mg/kg/injection, schedule: Q02DX009 (ip), vehicle: saline with Tween-80): 117 % of control
- T/C (dose: 16.0 mg/kg/injection, schedule: Q02DX009 (ip), vehicle: saline): 180 % of control
- T/C (dose: 32.0 mg/kg/injection, schedule: Q01DX001 (oral), vehicle: saline with Tween-80): 93 % of control
- T/C (dose: 32.0 mg/kg/injection, schedule: Q02DX009 (ip), vehicle: saline): 97 % of control
- T/C (dose: 64.0 mg/kg/injection, schedule: Q01DX001 (oral), vehicle: saline with Tween-80): 105 % of control
- T/C (dose: 512.0 mg/kg/injection, schedule: Q01DX001 (oral), vehicle: saline with Tween-80): 88 % of control

SMILES: COC(=O)Nc1cccc(-c2nc3ccc(NC(=O)OC)cc3c(=O)n2-c2ccccc2)c1
- T/C (dose: 50.0 mg/kg/injection, schedule: Q04DX005 (ip), vehicle: other): 99 % of control
- T/C (dose: 100.0 mg/kg/injection, schedule: Q04DX005 (ip), vehicle: other): 115 % of control
- T/C (dose: 100.0 mg/kg/injection, schedule: Q04DX005 (oral), vehicle: other): 102 % of control
- T/C (dose: 200.0 mg/kg/injection, schedule: Q04DX005 (oral), vehicle: other): 94 % of control

SMILES: Cc1ncc([N+](=O)[O-])n1CCO
- T/C (dose: 37.5 mg/kg/injection, schedule: Q01DX009 (ip), vehicle: Klucel (hydroxypropylcellulose) (HPC)): 100 % of control
- T/C (dose: 37.5 mg/kg/injection, schedule: Q04DX003 (ip), vehicle: Klucel (hydroxypropylcellulose) (HPC)): 100 % of control
- T/C (dose: 75.0 mg/kg/injection, schedule: Q01DX009 (ip), vehicle: Klucel (hydroxypropylcellulose) (HPC)): 100 % of control
- T/C (dose: 75.0 mg/kg/injection, schedule: Q04DX003 (ip), vehicle: Klucel (hydroxypropylcellulose) (HPC)): 111 % of control
- T/C (dose: 150.0 mg/kg/injection, schedule: Q01DX009 (ip), vehicle: Klucel (hydroxypropylcellulose) (HPC)): 108 % of control
- T/C (dose: 150.0 mg/kg/injection, schedule: Q04DX003 (ip), vehicle: Klucel (hydroxypropylcellulose) (HPC)): 111 % of control
- T/C (dose: 300.0 mg/kg/injection, schedule: Q01DX009 (ip), vehicle: Klucel (hydroxypropylcellulose) (HPC)): 93 % of control
- T/C (dose: 300.0 mg/kg/injection, schedule: Q04DX003 (ip), vehicle: Klucel (hydroxypropylcellulose) (HPC)): 112 % of control
- T/C (dose: 600.0 mg/kg/injection, schedule: Q04DX003 (ip), vehicle: Klucel (hydroxypropylcellulose) (HPC)): 121 % of control

SMILES: CSCS(=O)C[C@H](CO)NC(=O)/C=C/c1c(C)[nH]c(=O)[nH]c1=O (some centres not stated)
- T/C (dose: 0.08 mg/kg/injection, schedule: Q01DX009 (ip), vehicle: water): 90 % of control
- T/C (dose: 0.15 mg/kg/injection, schedule: Q01DX009 (ip), vehicle: water): 112 % of control
- T/C (dose: 0.3 mg/kg/injection, schedule: Q01DX009 (ip), vehicle: water): 96 % of control
- T/C (dose: 0.6 mg/kg/injection, schedule: Q01DX009 (ip), vehicle: water): 100 % of control

SMILES: CC1NC(=O)C(NC(=O)c2cnc3ccccc3n2)COC(=O)C(C(C)C)N(C)C(=O)C2CSSCC(C(=O)N(C)C(C(C)C)C(=O)OCC(NC(=O)c3cnc4ccccc4n3)C(=O)NC(C)C(=O)N2C)N(C)C1=O (configuration not stated) (I: Quinoxaline2carbonyl-SA[NMeC][NMeV] / II: Quinoxaline2carbonyl-SA[NMeC][NMeV]; ester I:1-II:C, I:C-II:1; disulfide I:3-II:3; configuration not given here)
- T/C (dose: 11.2 micrograms/kg/injection, schedule: Q01DX009 (ip), vehicle: Klucel (hydroxypropylcellulose) (HPC)): 91 % of control
- T/C (dose: 22.5 micrograms/kg/injection, schedule: Q01DX009 (ip), vehicle: Klucel (hydroxypropylcellulose) (HPC)): 107 % of control
- T/C (dose: 45.0 micrograms/kg/injection, schedule: Q01DX009 (ip), vehicle: Klucel (hydroxypropylcellulose) (HPC)): 109 % of control
- T/C (dose: 90.0 micrograms/kg/injection, schedule: Q01DX009 (ip), vehicle: Klucel (hydroxypropylcellulose) (HPC)): 104 % of control

SMILES: OCC1OC(n2cnc3c2NC=NC[C@H]3O)CC1O (some centres not stated)
- T/C (dose: 0.05 mg/kg/injection, schedule: Q03HX024 (ip), vehicle: saline): 90 % of control
- T/C (dose: 0.1 mg/kg/injection, schedule: Q03HX024 (ip), vehicle: saline): 105 % of control

SMILES: Nc1c(Cl)c(Cl)nc(C(=O)O)c1Cl
- T/C (dose: 3.12 mg/kg/injection, schedule: Q02DX009 (ip), vehicle: Klucel (hydroxypropylcellulose) (HPC)): 108 % of control
- T/C (dose: 6.25 mg/kg/injection, schedule: Q01DX015 (sc), vehicle: other): 105 % of control
- T/C (dose: 6.25 mg/kg/injection, schedule: Q02DX009 (ip), vehicle: Klucel (hydroxypropylcellulose) (HPC)): 97 % of control
- T/C (dose: 12.5 mg/kg/injection, schedule: Q01DX015 (sc), vehicle: other): 105 % of control
- T/C (dose: 25.0 mg/kg/injection, schedule: Q01DX015 (sc), vehicle: other): 101 % of control
- T/C (dose: 50.0 mg/kg/injection, schedule: Q02DX009 (ip), vehicle: Klucel (hydroxypropylcellulose) (HPC)): 94 % of control
- T/C (dose: 100.0 mg/kg/injection, schedule: Q02DX009 (ip), vehicle: Klucel (hydroxypropylcellulose) (HPC)): 90 % of control
- T/C (dose: 200.0 mg/kg/injection, schedule: Q02DX009 (ip), vehicle: Klucel (hydroxypropylcellulose) (HPC)): 87 % of control

SMILES: CC1(C)N=C(N)N=C(N)N1c1ccc(OCCCNC(=O)Nc2cccc(S(=O)(=O)F)c2)c(Cl)c1
- T/C (dose: 50.0 mg/kg/injection, schedule: Q01DX009 (ip), vehicle: saline): 115 % of control
- T/C (dose: 100.0 mg/kg/injection, schedule: Q01DX009 (ip), vehicle: saline): 91 % of control

SMILES: CS(C)=O
- T/C (dose: 1.5 grams/kg/injection, schedule: Q01DX009 (ip), vehicle: saline): 105 % of control
- T/C (dose: 3.0 grams/kg/injection, schedule: Q01DX009 (ip), vehicle: saline): 109 % of control and 111 % of control
- T/C (dose: 6.0 grams/kg/injection, schedule: Q01DX009 (ip), vehicle: saline): 96 % of control and 108 % of control

SMILES: CNc1ncnc2c1cnn2C
- T/C (dose: 10.0 mg/kg/injection, schedule: Q01DX009 (ip), vehicle: saline): 92 % of control
- T/C (dose: 20.0 mg/kg/injection, schedule: Q01DX009 (ip), vehicle: saline): 103 % of control

SMILES: Nc1ncnc2c1ncn2C1OC(CO)C(O)C1O (configuration not stated)
- T/C (dose: 60.0 mg/kg/injection, schedule: Q03HX024 (ip), vehicle: saline with Tween-80): 115 % of control
- T/C (dose: 70.0 mg/kg/injection, schedule: Q03HX024 (ip), vehicle: saline with Tween-80): 96 % of control
- T/C (dose: 80.0 mg/kg/injection, schedule: Q03HX024 (ip), vehicle: saline with Tween-80): 105 % of control
- T/C (dose: 160.0 mg/kg/injection, schedule: Q03HX024 (ip), vehicle: saline with Tween-80): 115 % of control
- T/C (dose: 240.0 mg/kg/injection, schedule: Q03HX024 (ip), vehicle: saline with Tween-80): 121 % of control
